Where two headings read alike, the source gives them in different places.
Test system: HCMV
Format: cell-based
Method: In example herpesvirus PRM assay methods shown herein, cell pellets were lysed in 2% SDS, 100 mM NaCl, 0.5 mM EDTA, 50 mM Tris, pH 8.2, and 50 μg of protein was reduced and alkylated with 25 mM TCEP and 50 mM CAM respectively for 20 min at 70° C. Proteins were then precipitated via methanol chloroform precipitation (Wessel & Flugg, Anal Biochem. 138(1):141-143, 1984), resuspended in 50 mM HEPES, pH 8.2 and digested overnight with trypsin (50:1 protein:enzyme w/w ratio). Digested peptides were desalted by SDB-RPS StageTip as previously described (Lum et al., Cell Syst., 7(6):[…], 2018; Greco et al., Methods Mol Biol 1410:39-63, 2016; Federspiel & Cristea, Methods Mol Biol., 1977:115-143, 2019).
Peptides (1.0 μg on column) were analyzed by LC-MS/MS using a Dionex Ultimate 3000 UHPLC coupled online to an EASYSpray ion source and a Q Exactive HF. Peptides were separated on an EASYSpray C18 column (75 μm×25 cm) heated to 50° C. using a linear gradient of 5% B to 32% B over 60 min at a flow rate of 250 nL/min and were ionized at 1.7 kv. Mobile phase A consisted of 0.1% FA in H2O and mobile phase B consisted of 0.1% FA, 2.9% H2O in ACN.
The PRM method was controlled by a peptide inclusion list with retention time windows of 6 min for selected precursor ions.
The PRM assay was developed and analyzed using the open-source software Skyline (Maclean et al., Bioinformatics 26(7):966-968, 2010). Summed area under the curve of 3-4 transitions per peptide was used for quantitation. Targeted peptides were normalized to host protein loading control peptides. Peptide values for each sample were scaled to the average of each peptide across all runs. The average of multiple peptides was used as the inferred value for the protein measurement when more than one peptide was quantified (Federspiel et al., PLoS Biol. 17(9):e3000437. Doi: 10.1371/journal.pbio.3000437). PRM quantitation data were graphed using the Python Seaborn and Matplotlib libraries.
MRC5 primary human fibroblasts (HFs) (ATCC CCL-171) were used as the model system for HSV-1 and HCMV infections and were cultured in complete growth medium (DMEM supplemented with 10% fetal bovine serum and 1% penicillin-streptomycin antibiotics) at 37° C. and 5% CO2. iSLK.219 cells harboring latent KSHV (a gift from Dr. Britt Glaunsinger, University of California, Berkeley) were grown in complete growth medium supplemented with 500 μg/ml hygromycin (ThermoFisher Scientific, 10687010) at 37° C. and 5% CO2. All cells were used for experiments within a maximum of 10 passages.
Wild type HSV-1 strain 17+ (a gift from Beate Sodeik, Hannover Medical School, Hannover, Germany) was propagated as previously described (Diner et al., 2015). Briefly, PO stocks were generated by electroporating pBAC-HSV-1 into U-2 OS cells. […] In a similar manner, wild type HCMV strain AD169 was produced from BAC electroporation into HFs and working stocks were propagated by infecting HFs at a low level. In both cases, cell-associated virus was released by sonication, combined with supernatant virus, then concentrated by ultracentrifugation (20,000 rpm, 2 hours, 4° C. with SW28 swinging bucket rotor [Beckman Coulter]) over a 10% ficoll (HSV-1) or 20% sorbitol (HCMV) cushion. Virus stock titers were determined by plaque assay for HSV-1 or tissue culture infectious dose (TCID50) for HCMV and infections were performed at a multiplicity of infection (MOI) of 3.
12 hours prior to virus infection or reactivation, cells were treated with either the small molecule drug or DMSO/PBS control at an equivalent volume. […] For infection cycles lasting longer than 24 hours, small molecule drugs were re-added to the cell culture medium every 24 hours. Upon collection, cells were rinsed with PBS, scraped into a microcentrifuge tube, pelleted by centrifugation, and rinsed again with PBS.

Nc1ccn(C[C@@H](CO)OCP(=O)(O)O)c(=O)n1 [CDV, cidofovir]
HCMV late gene expression: reduction
HCMV protein levels across all temporal classes of gene expression (1 μM): substantial decreases
impact on HCMV IE genes compared to other gene classes (1 μM): relatively less impacted
decrease of HCMV protein UL54 (1 μM, across all time points): less than 20%
decrease in HCMV protein levels compared to PBS control (1 μM, by 72 HPI, in more than 85% of the proteins monitored): at least 35%
decrease in abundance of HCMV IE protein UL122 (1 μM, by 120 HPI): ~70%
DBP (P17147) protein, numerical value of heatmap FIG. 6C (DE, timepoint 24): 0.04283
HELI (P16736) protein, numerical value of heatmap FIG. 6C (DE, timepoint 24): 0.1024
NEC2 (P16791) protein, numerical value of heatmap FIG. 6C (DE, timepoint 24): 0.0159
RIR1 (P16782) protein, numerical value of heatmap FIG. 6C (DE, timepoint 24): 0.04961
UL26 (P16762) protein, numerical value of heatmap FIG. 6C (DE, timepoint 24): 0.04954
UL32 (P08318) protein, numerical value of heatmap FIG. 6C (DE, timepoint 24): 0.01616
UL34 (P16812) protein, numerical value of heatmap FIG. 6C (DE, timepoint 24): 0.05376
UL38 (P16779) protein, numerical value of heatmap FIG. 6C (DE, timepoint 24): 0.5007
UL44 (P16790) protein, numerical value of heatmap FIG. 6C (DE, timepoint 24): 0.0325
UL54 (P08546) protein, numerical value of heatmap FIG. 6C (DE, timepoint 24): 0.2154
UL71 (P16823) protein, numerical value of heatmap FIG. 6C (DE, timepoint 24): 0.2978
UL78 (P16751) protein, numerical value of heatmap FIG. 6C (DE, timepoint 24): 0.1834
UL84 (P16727) protein, numerical value of heatmap FIG. 6C (DE, timepoint 24): 0.0827
UL96 (P16787) protein, numerical value of heatmap FIG. 6C (DE, timepoint 24): 0.339
UL97 (P16788) protein, numerical value of heatmap FIG. 6C (DE, timepoint 24): 0.1685
UL98 (P16789) protein, numerical value of heatmap FIG. 6C (DE, timepoint 24): 0.1785
UL102 (P16827) protein, numerical value of heatmap FIG. 6C (DE, timepoint 24): 0.2917
UL112/UL113 (P17151) protein, numerical value of heatmap FIG. 6C (DE, timepoint 24): 0.3345
UL114 (P16769) protein, numerical value of heatmap FIG. 6C (DE, timepoint 24): 0.3025
UL119/UL118 (P16739) protein, numerical value of heatmap FIG. 6C (DE, timepoint 24): 0.07541
UL128 (P16837) protein, numerical value of heatmap FIG. 6C (DE, timepoint 24): 0.1472
US8 (P09730) protein, numerical value of heatmap FIG. 6C (DE, timepoint 24): 0.3317
US9 (P09729) protein, numerical value of heatmap FIG. 6C (DE, timepoint 24): 0.2308
US12 (P09721) protein, numerical value of heatmap FIG. 6C (DE, timepoint 24): 0.6397
US13 (P09720) protein, numerical value of heatmap FIG. 6C (DE, timepoint 24): 0.2174
US14 (P09719) protein, numerical value of heatmap FIG. 6C (DE, timepoint 24): 0.1903
US18 (P69334) protein, numerical value of heatmap FIG. 6C (DE, timepoint 24): 0.3161
US22 (P09722) protein, numerical value of heatmap FIG. 6C (DE, timepoint 24): 0.1701
US23 (P09701) protein, numerical value of heatmap FIG. 6C (DE, timepoint 24): 0.3435
US24 (P09700) protein, numerical value of heatmap FIG. 6C (DE, timepoint 24): 0.2973
gB (P06473) protein, numerical value of heatmap FIG. 6C (DE, timepoint 24): 0.05133
sp|P09710|IR01_HCMVA (P09710) protein, numerical value of heatmap FIG. 6C (DE, timepoint 24): 0.1514
DBP (P17147) protein, numerical value of heatmap FIG. 6C (DE, timepoint 48): 0.2386
HELI (P16736) protein, numerical value of heatmap FIG. 6C (DE, timepoint 48): 0.4106
NEC2 (P16791) protein, numerical value of heatmap FIG. 6C (DE, timepoint 48): 0.08567
RIR1 (P16782) protein, numerical value of heatmap FIG. 6C (DE, timepoint 48): 0.1065
TRM1 (P16724) protein, numerical value of heatmap FIG. 6C (DE, timepoint 48): 0.1188
UL4 (P17146) protein, numerical value of heatmap FIG. 6C (DE, timepoint 48): 0.07447
UL26 (P16762) protein, numerical value of heatmap FIG. 6C (DE, timepoint 48): 0.1073
UL32 (P08318) protein, numerical value of heatmap FIG. 6C (DE, timepoint 48): 0.03113
UL34 (P16812) protein, numerical value of heatmap FIG. 6C (DE, timepoint 48): 0.1018
UL38 (P16779) protein, numerical value of heatmap FIG. 6C (DE, timepoint 48): 0.7494
UL44 (P16790) protein, numerical value of heatmap FIG. 6C (DE, timepoint 48): 0.09556
UL48 (P16785) protein, numerical value of heatmap FIG. 6C (DE, timepoint 48): 0.04333
UL54 (P08546) protein, numerical value of heatmap FIG. 6C (DE, timepoint 48): 0.6243
